A short description of series [1]: in vitro comparative gelling experiment in 0.1N hydrochloric acid. In kind it is physicochemical.
Series [2] deals with Escherichia coli, A.T.T.C. accession number 8739. Kind of series: in-vitro antimicrobial activity, zone of inhibition on agar plates. In kind it is cell-based. As to conditions: agar plate well, incubated at 37° C. for 24 hours.

Like-named read-outs stand apart in the source and are kept apart here.

As to `O=C(O)c1ccccc1` [Example 10, Benzoic Acid], the gel formation result in series [1] was “did not gel”.
Still for that read-out and setting: then `Cl` [Example 12, 0.1N Hydrochloric Acid], with “gelled”.
As to Sucralfate [Example 1], the “supernatant left after gelling” value in series [1] (15ml of 0.1N hydrochloric acid) is given as “essentially clear”. In addition, in series [1] (composition in 15ml of 0.1N hydrochloric acid, Vortex-Genie speed 3 for 10-15 seconds), the “gelled in (time to gel)” value is given as “about 10 seconds”.
Sucralfate [Example 7]: in series [2], the “ZONE OF INHIBITION(CM)” value is “Negative”. Moreover, the gel formation result in series [1] (sample preparation for the antimicrobial test: 15ml of 0.1N hydrochloric acid in sterile test tube) is given as “gelled”.

The record behind these values is patent EP0403048A2, “Medicated compositions containing sucralfate and processes for their production” (WARNER-LAMBERT COMPANY, priority 1989, dated 1990).
